Measurements: ChEMBL document CHEMBL4229381, “New cytokinin derivatives possess UVA and UVB photoprotective effect on human skin cells and prevent oxidative stress” (Eur J Med Chem, 2018)
Calls of active or inactive are those of the source. The calls are words filed in the database; no cut-off is given here.

Columns and labels:
[1] = Phototoxicity in human NHDF cells assessed as cell viability at 7.8 uM preincubated for 60 mins followed by 5 J/cm2 UVA irradiation and measured after 24 hrs by neutral red uptake assay relative to control; assay type: cell-based; conditions: read-out: Activity
[2] = system: BJ; experiment: Cytotoxicity in human BJ cells assessed as reduction in cell viability at 50 uM after 24 hrs by resazurin dye-based fluorescence assay relative to control
[3] = Phototoxicity in human NHDF cells assessed as cell viability at 3.9 uM preincubated for 60 mins followed by 5 J/cm2 UVA irradiation and measured after 24 hrs by neutral red uptake assay relative to control; assay type: cell-based; conditions: read-out: Activity
[4] = Phototoxicity in human HaCaT cells assessed as cell viability at 7.8 uM preincubated for 60 mins followed by 7.5 J/cm2 UVA irradiation and measured after 24 hrs by neutral red uptake assay relative to control; assay type: cell-based; conditions: read-out: Activity
[5] = Phototoxicity in human NHDF cells assessed as cell viability at 31.3 uM preincubated for 60 mins followed by 5 J/cm2 UVA irradiation and measured after 24 hrs by neutral red uptake assay relative to control; assay type: cell-based; conditions: read-out: Activity
[6] = Cytotoxicity in human NHDF cells assessed as cell viability at 62.5 uM after 24 hrs by neutral red uptake assay relative to control; assay type: cell-based; conditions: read-out: Activity
[7] = Phototoxicity in human HaCaT cells assessed as cell viability at 15.6 uM preincubated for 60 mins followed by 7.5 J/cm2 UVA irradiation and measured after 24 hrs by neutral red uptake assay relative to control; assay type: cell-based; conditions: read-out: Activity
[8] = Stability of the compound in pH 6 solution at 10^-4 M after 1 hr by HPLC analysis; assay type: physicochemical; conditions: read-out: Stability
[9] = system: Triticum aestivum; experiment: Anti-senescent activity in leaf of Triticum aestivum cv. Hereward seedlings by measuring chlorophyll retention at 10^-4 mol/L after 4 days relative to control; assay type: functional
[10] = Stability of the compound in pH 4 solution at 10^-4 M after 24 hrs by HPLC analysis; assay type: physicochemical; conditions: read-out: Stability
[11] = Cytotoxicity in human NHDF cells assessed as cell viability at 125 uM after 24 hrs by neutral red uptake assay relative to control; assay type: cell-based; conditions: read-out: Activity
[12] = system: HaCaT; experiment: Cytoprotection against phototoxicity in human HaCaT cells assessed as increase in cell viability at 3.9 uM preincubated for 60 mins followed by 10 J/cm2 UVA irradiation and measured after 24 hrs by neutral red uptake assay; assay type: functional, cell-based
[13] = system: Amaranthus caudatus; experiment: Growth promoting activity in Amaranthus caudatus var. atropurpurea seeds by measuring betacyanin at 10^-4 mol/L after 48 hrs relative to control; assay type: functional
[14] = Cytotoxicity in human HaCaT cells assessed as cell viability at 3.9 uM after 24 hrs by neutral red uptake assay relative to control; assay type: cell-based; conditions: read-out: Activity
[15] = Phototoxicity in human HaCaT cells assessed as cell viability at 31.3 uM preincubated for 60 mins followed by 7.5 J/cm2 UVA irradiation and measured after 24 hrs by neutral red uptake assay relative to control; assay type: cell-based; conditions: read-out: Activity
[16] = Stability of the compound in pH 4 solution at 10^-4 M after 1 hr by HPLC analysis; assay type: physicochemical; conditions: read-out: Stability
[17] = Phototoxicity in human HaCaT cells assessed as cell viability at 3.9 uM preincubated for 60 mins followed by 7.5 J/cm2 UVA irradiation and measured after 24 hrs by neutral red uptake assay relative to control; assay type: cell-based; conditions: read-out: Activity
[18] = Phototoxicity in human HaCaT cells assessed as cell viability at 125 uM preincubated for 60 mins followed by 7.5 J/cm2 UVA irradiation and measured after 24 hrs by neutral red uptake assay relative to control; assay type: cell-based; conditions: read-out: Activity
[19] = system: Caenorhabditis elegans; experiment: Protection against juglone-induced oxidative stress in wild type Caenorhabditis elegans N2 at 100 uM preincubated for 3 days followed by juglone addition and measured after 4 hrs by inverted microscopic analysis; assay type: functional, organism-based
[20] = system: Nicotiana tabacum; experiment: Growth promoting activity in tobacco callus assessed as callus weight at 10^-5 mol/L after 4 weeks relative to control; assay type: functional
[21] = Stability of the compound in pH 3 solution at 10^-4 M after 1 hr by HPLC analysis; assay type: physicochemical; conditions: read-out: Stability
[22] = system: Caenorhabditis elegans; experiment: Protection against juglone-induced oxidative stress in Caenorhabditis elegans BA17 (fem-1) at 100 uM preincubated for 3 days followed by juglone addition measured every hour for 12 ro 14 hrs by inverted microscopic analysis; assay type: functional, organism-based
[23] = Antioxidant activity assessed as trolox equivalent of AAPH-induced radical scavenging activity at 1 uM pretreated for 15 mins followed by […] challenge measured every 3 mins over 90 mins by ORAC-FL assay; assay type: functional
[24] = Stability of the compound in pH 3 solution at 10^-4 M after 24 hrs by HPLC analysis; assay type: physicochemical; conditions: read-out: Stability
[25] = Cytotoxicity in human HaCaT cells assessed as cell viability at 125 uM after 24 hrs by neutral red uptake assay relative to control; assay type: cell-based; conditions: read-out: Activity
[26] = Cytotoxicity in human NHDF cells assessed as cell viability at 7.8 uM after 24 hrs by neutral red uptake assay relative to control; assay type: cell-based; conditions: read-out: Activity
[27] = Stability of the compound in pH 6 solution at 10^-4 M after 24 hrs by HPLC analysis; assay type: physicochemical; conditions: read-out: Stability
[28] = Cytotoxicity in human HaCaT cells assessed as cell viability at 7.8 uM after 24 hrs by neutral red uptake assay relative to control; assay type: cell-based; conditions: read-out: Activity
[29] = Cytotoxicity in human NHDF cells assessed as cell viability at 31.3 uM after 24 hrs by neutral red uptake assay relative to control; assay type: cell-based; conditions: read-out: Activity
[30] = Phototoxicity in human NHDF cells assessed as cell viability at 125 uM preincubated for 60 mins followed by 5 J/cm2 UVA irradiation and measured after 24 hrs by neutral red uptake assay relative to control; assay type: cell-based; conditions: read-out: Activity
[31] = Stability of the compound in pH 5 solution at 10^-4 M after 24 hrs by HPLC analysis; assay type: physicochemical; conditions: read-out: Stability
[32] = Phototoxicity in human NHDF cells assessed as cell viability at 62.5 uM preincubated for 60 mins followed by 5 J/cm2 UVA irradiation and measured after 24 hrs by neutral red uptake assay relative to control; assay type: cell-based; conditions: read-out: Activity
[33] = Stability of the compound in pH 5 solution at 10^-4 M after 1 hr by HPLC analysis; assay type: physicochemical; conditions: read-out: Stability
[34] = Cytotoxicity in human HaCaT cells assessed as cell viability at 31.3 uM after 24 hrs by neutral red uptake assay relative to control; assay type: cell-based; conditions: read-out: Activity
[35] = system: HaCaT; experiment: Cytotoxicity in human HaCaT cells assessed as reduction in cell viability at 50 uM after 24 hrs by resazurin dye-based fluorescence assay relative to control
[36] = Cytotoxicity in human HaCaT cells assessed as cell viability at 62.5 uM after 24 hrs by neutral red uptake assay relative to control; assay type: cell-based; conditions: read-out: Activity
[37] = Cytotoxicity in human NHDF cells assessed as cell viability at 15.6 uM after 24 hrs by neutral red uptake assay relative to control; assay type: cell-based; conditions: read-out: Activity
[38] = Cytotoxicity in human HaCaT cells assessed as cell viability at 15.6 uM after 24 hrs by neutral red uptake assay relative to control; assay type: cell-based; conditions: read-out: Activity
[39] = Cytotoxicity in human NHDF cells assessed as cell viability at 3.9 uM after 24 hrs by neutral red uptake assay relative to control; assay type: cell-based; conditions: read-out: Activity
[40] = Phototoxicity in human HaCaT cells assessed as cell viability at 62.5 uM preincubated for 60 mins followed by 7.5 J/cm2 UVA irradiation and measured after 24 hrs by neutral red uptake assay relative to control; assay type: cell-based; conditions: read-out: Activity
[41] = Phototoxicity in human NHDF cells assessed as cell viability at 15.6 uM preincubated for 60 mins followed by 5 J/cm2 UVA irradiation and measured after 24 hrs by neutral red uptake assay relative to control; assay type: cell-based; conditions: read-out: Activity
[42] = system: NHDF; experiment: Cytoprotection against phototoxicity in human NHDF cells assessed as increase in cell viability at 31.3 uM preincubated for 60 mins followed by 150 mJ/cm2 UVB irradiation and measured after 24 hrs by neutral red uptake assay; assay type: functional, cell-based

## Clc1nc(NCc2ccco2)c2ncn(C3CCCO3)c2n1 (stereo not given)
[1]
  viability at 24 h, 7.8 µM: 102%
[2]
  Activity: < 10%
[3]
  viability at 24 h, 3.9 µM: 100%
[4]
  viability at 24 h, 7.8 µM: 120%
[5]
  viability at 24 h, 31.3 µM: 103%
[6]
  viability at 24 h, 62.5 µM: 106%
[7]
  viability at 24 h, 15.6 µM: 120%
[8]
  remaining at 1 h, 100 µM: 100%
[9]
  Activity: 75%
[10]
  remaining at 24 h, 100 µM: 51.7%
[11]
  viability at 24 h, 125 µM: 101%
[12]
  Activity: Active
[13]
  Activity: 88%
[14]
  viability at 24 h, 3.9 µM: 107%
[15]
  viability at 24 h, 31.3 µM: 119%
[16]
  remaining at 1 h, 100 µM: 100%
[17]
  viability at 24 h, 3.9 µM: 116%
[18]
  viability at 24 h, 125 µM: 104%
[19]
  Activity: Active
[20]
  Activity: 112%
[21]
  remaining at 1 h, 100 µM: 98.8%
[22]
  Activity: Active
[23]
  Activity: < 0.05 equiv
[24]
  remaining at 24 h, 100 µM: 0.9%
[25]
  viability at 24 h, 125 µM: 105%
[26]
  viability at 24 h, 7.8 µM: 104%
[27]
  remaining at 24 h, 100 µM: 100%
[28]
  viability at 24 h, 7.8 µM: 107%
[29]
  viability at 24 h, 31.3 µM: 105%
[30]
  viability at 24 h, 125 µM: 97%
[31]
  remaining at 24 h, 100 µM: 92.9%
[32]
  viability at 24 h, 62.5 µM: 103%
[33]
  remaining at 1 h, 100 µM: 100%
[34]
  viability at 24 h, 31.3 µM: 109%
[35]
  Activity: < 10%
[36]
  viability at 24 h, 62.5 µM: 110%
[37]
  viability at 24 h, 15.6 µM: 104%
[38]
  viability at 24 h, 15.6 µM: 109%
[39]
  viability at 24 h, 3.9 µM: 100%
[40]
  viability at 24 h, 62.5 µM: 116%
[41]
  viability at 24 h, 15.6 µM: 103%

## c1nc(NCC2CCCO2)c2nc[nH]c2n1 (stereo not given)
[1]
  viability at 24 h, 7.8 µM: 101%
[2]
  Activity: < 10%
[3]
  viability at 24 h, 3.9 µM: 99%
[4]
  viability at 24 h, 7.8 µM: 103%
[5]
  viability at 24 h, 31.3 µM: 101%
[6]
  viability at 24 h, 62.5 µM: 102%
[7]
  viability at 24 h, 15.6 µM: 106%
[9]
  Activity: 114%
[11]
  viability at 24 h, 125 µM: 101%
[12]
  Activity: Active
[13]
  Activity: 109%
[14]
  viability at 24 h, 3.9 µM: 102%
[15]
  viability at 24 h, 31.3 µM: 113%
[42]
  Activity: Active
[17]
  viability at 24 h, 3.9 µM: 101%
[18]
  viability at 24 h, 125 µM: 119%
[20]
  Activity: 110%
[23]
  Activity: < 0.05 equiv
[25]
  viability at 24 h, 125 µM: 102%
[26]
  viability at 24 h, 7.8 µM: 103%
[28]
  viability at 24 h, 7.8 µM: 104%
[29]
  viability at 24 h, 31.3 µM: 102%
[30]
  viability at 24 h, 125 µM: 103%
[32]
  viability at 24 h, 62.5 µM: 100%
[34]
  viability at 24 h, 31.3 µM: 104%
[35]
  Activity: < 10%
[37]
  viability at 24 h, 15.6 µM: 101%
[38]
  viability at 24 h, 15.6 µM: 102%
[39]
  viability at 24 h, 3.9 µM: 102%
[40]
  viability at 24 h, 62.5 µM: 118%
[41]
  viability at 24 h, 15.6 µM: 100%

## c1nc(NCC2CCCC2)c2nc[nH]c2n1
[9]
  Activity: 71%
[13]
  Activity: 97%
[20]
  Activity: 100%
